Values after ≈ are worked out from the molar mass of the structure shown. Read-outs that look alike come from different tables or passages of the source. A value given as a limit tells only on which side of the number the result lay.

Data on 10 compounds can be found in US5081023A, “Antibiotic L53-18A and process for preparation thereof” (Toyo Yozo Company, Ltd., priority 1989, dated 1992).

For data set [1], the system named is Saccharopolyspora sp. L53-18. As to the kind of experiment: Resistance to antibiotic (MIC), Table 3. It counts as cell-based. The source says:
[according to J. Antibiot. 32: 180-186 (1976)]

For data set [2], the system named is Saccharopolyspora sp. L53-18. As to the kind of experiment: Resistance to lysozyme. The conditions noted are these: producing strain L53-18. It counts as cell-based. The source says: (8) Resistance to lysozyme: sensitive [Inter. J. System. Bacteriol. 27: 176-178 (1977)]
The subject of data set [3] is Streptococcus pyogenes N.Y.5. The data set is described as follows: Antimicrobial activity (MIC), Table 1. It is filed as cell-based. The conditions noted are these: read-out: Minimum growth inhibitory concentration.
Data set [4] is described as follows: Distinction of acidic or basic. It is filed as physicochemical.
The subject of the next data set is Sarcina lutea ATCC 9341. As to the kind of experiment: Antimicrobial activity (MIC), Table 1. It is filed as cell-based. The conditions noted are these: Micrococcus luteus, ATCC9341, read-out: Minimum growth inhibitory concentration.
Data set [5] deals with Staphylococcus aureus FDA 209P JC-1. As to the kind of experiment: Antimicrobial activity (MIC), Table 1. It counts as cell-based. The conditions noted are these: FDA209P, read-out: Minimum growth inhibitory concentration.
The subject of data set [6] is Klebsiella pneumoniae NCTC 9632. The data set is described as follows: Antimicrobial activity (MIC), Table 1. The conditions noted are these: NCTC9632, read-out: Minimum growth inhibitory concentration. It counts as cell-based.
For data set [7], the system named is Pseudomonas aeruginosa IAM 1095. The data set is described as follows: Antimicrobial activity (MIC), Table 1. The conditions noted are these: IAM1095, read-out: Minimum growth inhibitory concentration. It is filed as cell-based.
Data set [8] deals with Staphylococcus epidermidis ATCC 27626. As to the kind of experiment: Antimicrobial activity (MIC), Table 1. The conditions noted are these: ATCC27626, read-out: Minimum growth inhibitory concentration. It is filed as cell-based.
A short description of another data set: Solubility. It counts as physicochemical.
The subject of another data set is Gram-positive bacteria. As to the kind of experiment: Antibacterial activity. It counts as cell-based.
A further data set concerns mice. The data set is described as follows: Acute toxicity. It counts as in vivo. The conditions noted are these: ip, 10 per group, mice surviving at this dose. The method, then:
(16) Acute toxicity: 300 mg/kg (ip) with surviving mice (10 mice per one group).

Data set [9] relates to Streptococcus agalactiae 1020. As to the kind of experiment: Antimicrobial activity (MIC), Table 1. It is filed as cell-based. The conditions noted are these: read-out: Minimum growth inhibitory concentration.
Data set [10] has as its system Escherichia coli NIHJ JC-2. The data set is described as follows: Antimicrobial activity (MIC), Table 1. The conditions noted are these: NIHJJC2, read-out: Minimum growth inhibitory concentration. It is filed as cell-based.
Data set [11] concerns Bacillus subtilis ATCC 6633. The data set is described as follows: Antimicrobial activity (MIC), Table 1. The conditions noted are these: ATCC6633, read-out: Minimum growth inhibitory concentration. It counts as cell-based.
The mark [12] stands for this setting: resistance of producing strain L53-18 to antibiotics, read-out: MIC.
The mark [13] stands for this setting: resistance of producing strain L53-18 to antibiotics.

On to `NC[C@@H]1O[C@H](O[C@H]2[C@@H](O)[C@H](O[C@@H]3[C@@H](O)[C@H](N)C[C@H](N)[C@H]3O[C@H]3O[C@H](CO)[C@@H](O)[C@H](O)[C@H]3N)O[C@@H]2CO)[C@H](N)[C@@H](O)[C@@H]1O` [Paromomycin], for which the MIC in data set [1] (setting [12]) came to 31 µg/mL (≈ 50.4 µM).
The compound `NC[C@H]1O[C@H](O[C@H]2[C@H](O)[C@@H](O[C@H]3O[C@H](CO)[C@@H](O)[C@H](N)[C@H]3O)[C@H](N)C[C@@H]2N)[C@H](O)[C@@H](O)[C@@H]1O` [Kanamycin] gave an MIC in data set [1] of 63 µg/mL (≈ 130 µM).
Regarding Gentamicin, the MIC in data set [1] (setting [13]) was 16 µg/mL.
Consider lysozyme, for which, in data set [2], the Resistance to lysozyme result is given as “sensitive”.
As to `[H]/N=C(/N)N[C@H]1[C@H](O)[C@@H](O)[C@H](O[C@@H]2O[C@@H](C)[C@](O)(C=O)[C@H]2O[C@@H]2O[C@@H](CO)[C@H](O)[C@@H](O)[C@@H]2NC)[C@@H](N/C(N)=N\[H])[C@@H]1O` [Streptomycin], the MIC in data set [1] (setting [12]) is 31 µg/mL (≈ 53.3 µM).
In [1] (setting [13]), Neomycin displayed an MIC of 63 µg/mL.
Consider `CCCC(=O)O[C@H]1[C@H](C)O[C@@H](O[C@H]2[C@H](N(C)C)[C@@H](O)[C@H](O[C@H]3[C@@H](CC=O)C[C@@H](C)[C@@H](O)/C=C/C=C/C[C@@H](C)OC(=O)C[C@@H](O)[C@@H]3OC)O[C@@H]2C)C[C@@]1(C)O` [Leucomycin A5], for which the MIC in [1] (setting [12]) was over 1000 µg/mL.
On the same count and under the same terms, then `CN[C@@H]1[C@H](O)[C@H](NC)[C@H]2O[C@@]3(O)C(=O)C[C@@H](C)O[C@H]3O[C@@H]2[C@H]1O` [Spectinomycin], with over 1000 µg/mL.
For `CC[C@H]1OC(=O)[C@H](C)[C@@H](O[C@H]2C[C@@](C)(OC)[C@@H](O)[C@H](C)O2)[C@H](C)[C@@H](O[C@@H]2O[C@H](C)C[C@H](N(C)C)[C@H]2O)[C@](C)(O)C[C@@H](C)C2=C(C)C(=O)[C@]1(C)O2` [Antibiotic L53-18A], the MIC in data set [3] is under 0.05 µg/mL; in the data set with Sarcina lutea ATCC 9341, under 0.05 µg/mL; in data set [5], 0.2 µg/mL (≈ 0.28 µM); in [6], over 100 µg/mL; in data set [7], over 100 µg/mL; in [8], 0.2 µg/mL (≈ 0.28 µM). Also, the MIC in [9] was under 0.05 µg/mL; in data set [10] it was over 100 µg/mL; in [11] it was under 0.05 µg/mL. Also, the “Distinction of acidic or basic” value in data set [4] is “basic”. Moreover, in “Solubility”, the Solubility result was “Soluble in methanol, ethanol, acetone, ethyl acetate, chloroform, benzene and acidic water”. In the data set with Gram-positive bacteria, the “antibacterial activity to Gram-positive bacteria” value is “shows antibacterial activity to Gram-positive bacteria”. For the same compound, in the data set on mice, the “Acute toxicity (dose with surviving mice)” value came to 300 mg/kg.
For the compound `CO[C@H]1/C=C/O[C@@]2(C)Oc3c(C)c(O)c4c(O)c(c(/C=N/N5CCN(C)CC5)c(O)c4c3C2=O)NC(=O)/C(C)=C\C=C\[C@H](C)[C@H](O)[C@@H](C)[C@@H](O)[C@@H](C)[C@H](OC(C)=O)[C@@H]1C` [Rifampicin], the MIC in data set [1] (setting [12]) is under 16 µg/mL.
